One test addresses T1, aldose reductase (Bos taurus, UniProt P16116).
T1 construct: partially purified aldose reductase enzyme obtained from calf lens; from tissue; host or cells: calf lens
As to the kind of experiment: inhibition of aldose reductase enzyme activity (partially purified enzyme from calf lens). It is filed as biochemical. The following applies: for inhibition at 1 µM: 10^-6 M, partially purified aldose reductase from calf lens; for aldose reductase inhibitory activity (in words): qualitative statement, no concentration given. On the procedure:
(§1) The activity of the compounds of the present invention, as agents for the control of chronic diabetic complications, is determined by their ability to successfully pass one or more of the following standard biological or pharmacological tests, viz., (1) measuring their ability to inhibit the enzyme activity of isolated aldose reductase; (2) measuring their ability to reduce or inhibit sorbitol accumulation in the sciatic nerve of acutely streptozotocinized (i.e., diabetic) rats; (3) measuring their ability to reverse already-elevated sorbitol levels in the sciatic nerve and lens of chronic streptozotocin-induced diabetic rats; (4) measuring their ability to prevent or inhibit galactitol formation in the lens of acutely galactosemic rats, and (5) measuring their ability to delay cataract formation and reduce the severity of lens opacities in chronic galactosemic rats.
The following spiro-oxindole imidazolidinedione final products of Examples 1-5, respectively, were tested at a concentration level of 10^-6 M for their ability to reduce or inhibit aldose reductase enzyme activity via the procedure of S. Hayman et al., as described in the Journal of Biological Chemistry, Vol. 240, p. 877 (1965) and as modified by K. Sestanj et al. in U.S. Pat. No. 3,821,383. In every case, the substrate employed was partially purified aldose reductase enzyme obtained from calf lens.

In test [1] the test system is sorbitol levels in diabetic rats. Description: inhibition of the formation of sorbitol levels in diabetic rats, oral. The following applies: dose levels ranging from 0.5 mg/kg to 20 mg/kg. It is filed as in vivo, rat.
Text: As previously indicated, the spiro-oxindole imidazolidinedione compounds of this invention are readily adapted to therapeutic use as aldose reductase inhibitors for the control of chronic diabetic complications, in view of their ability to reduce lens sorbitol levels in diabetic subjects to a statistically significant degree. […] Furthermore, the herein described compounds of this invention can be administered by either the oral or parenteral routes of administration. […]
as §1

Turning to `Nc1cc(Cl)cc2c1NC(=O)C21NC(=O)NC1=O` (centres unmarked) [Example 1, 5'-chloro-7'-amino-spiro-[imidazolidine-4,3'-indolidine]-2,2',5-trione], at aldose reductase, 1 µM produced 72% inhibition and the “aldose reductase inhibitory activity (in words)” value was “highly potent”.
On to `O=C1NC(=O)C2(N1)C(=O)N(Cc1cccnc1)c1c(Cl)cc(Cl)cc12` (centres unmarked) [Example 2, 1'-(3-pyridymethyl)-5',7'-dichloro-spiro-[imidazolidine-4,3'-indoline]-2,2',5-trione], for which, at aldose reductase, testing at 1 µM gave an inhibition of 81% and the “aldose reductase inhibitory activity (in words)” value is given as “highly potent”. For the same compound, the “inhibition of the formation of sorbitol levels in diabetic rats (in words)” value in test [1] was “significantly high degree”.
For `O=C1NC(=O)C2(N1)C(=O)N(Cc1cccnc1)c1ccc(F)cc12` (centres unmarked) [Example 3, 1'-(3-pyridylmethyl)-5'-fluorospiro-[imidazolidine-4,3'-indoline]-2,2',5-trione], at aldose reductase, at 1 µM the inhibition was 71% and the “aldose reductase inhibitory activity (in words)” value is “highly potent”.
Consider `Nc1ccc2c(c1)NC(=O)C21NC(=O)NC1=O` (centres unmarked) [Example 4, 6'-amino-spiro-[imidazolidine-4,3'-indoline]-2,2',5-trione], for which, on aldose reductase, testing at 1 µM gave an inhibition of 27% and the “aldose reductase inhibitory activity (in words)” value was “highly potent”.
For `O=C1NC(=O)C2(N1)C(=O)Nc1cnccc12` (centres unmarked) [Example 5, spiro-[imidazolidine-4,3'-(6-azaindoline)]-2,2',5-trione] the same measures were 49% and “highly potent”.

One may read the inhibition as the change of the read-out against control, counted positive when it falls. A high value points to a response far below the control.
